Laboratory results from patent US5476952A, “Antitumor cyclopentnaphthoquinone and cyclopentanthraquinone derivatives” (Sloan-Kettering Institute for Cancer Research, priority 1993, dated 1995).
Read-outs that look alike come from different tables or passages of the source.

Columns and labels:
DNA = conditions: literature; cited from earlier work
[1] = literature; cited from earlier work
L1210 = experiment: in vitro cell growth inhibition, L1210; assay type: cell-based
From the text: (§1) Compounds of the invention show antitumor activity. The antitumor activity of the representative cyclopentanthraquinone derivatives is compared with Mitomycin C, m-AMSA and adriamycin.

L1210 cells = experiment: effect against L1210 in mice (mice inoculated i.p. with L1210 cells); assay type: in vivo; parameters: AST / survival time: unit not given here; conditions: for % ILS (increase in lifespan): 25% or greater considered significant; for survival time: individual mice
From the text: *Increase in lifespan of 25% or greater is considered to be significant.
Mice dying of toxicity (t) not included in AST evaluation.

human leukemic HL-60 = experiment: in vitro cell growth inhibition, HL-60; assay type: cell-based; conditions: for IC50 / antitumor activity against human leukemic HL-60 cell growth (in words): HL-60, in vitro
From the text: as §1

MT4 = experiment: in vitro cell growth inhibition, MT4; assay type: cell-based, human; conditions: for IC50 / antitumor activity against MT4 cell growth (in words): MT4, in vitro
From the text: as §1

[2] = system: certain tumor cell growth; conditions: literature; without alkylating side chain; cited from earlier work
[3] = Mus musculus, L1210, in vitro, read-out: IC50 for Cell Growth Inhibition, L1210
[4] = L1210, in vitro, read-out: IC50 for Cell Growth Inhibition, L1210

Structure (SMILES)	IC50 (L1210; [3])	AST (L1210 cells; 2.5 mg/kg QD x5, i.p.)	N/T (L1210 cells; 2.5 mg/kg QD x5, i.p.)	% ILS (increase in lifespan) (L1210 cells; 2.5 mg/kg QD x5, i.p.)	day 4 AWC (L1210 cells; 2.5 mg/kg QD x5, i.p.)	N/T (L1210 cells; 5.0 mg/kg QD x5, i.p.)	day 4 AWC (L1210 cells; 5.0 mg/kg QD x5, i.p.)	AST (L1210 cells; 20 mg/kg x1, i.p.)	N/T (L1210 cells; 20 mg/kg x1, i.p.)	% ILS (increase in lifespan) (L1210 cells; 20 mg/kg x1, i.p.)	survival time (L1210 cells; 20 mg/kg x1, i.p.)	antitumor activity against L1210 cell growth (in words) (L1210; L1210, in vitro)	other results
CCN(CC)CCNc1ccc(C)c2sc3ccccc3c(=O)c12 [lucanthone]	–	–	–	–	–	–	–	–	–	–	–	–	interaction with DNA (in words) (DNA): capable of intercalating into DNA and monoalkylating the DNA; antischistosomal and antitumor activity (in words) [1]: potent antischistosomal and antitumor activity
CO[C@@]12[C@H](COC(N)=O)C3=C(C(=O)C(C)=C(N)C3=O)N1C[C@@H]1N[C@@H]12 [Mit-C, reference compound]	0.005 µM	12.7	0/3	92%	+1.0 g	0/3	-2.0 g	11.0	0/1	67%	11	–	day 7 AWC (L1210 cells; 2.5 mg/kg QD x5, i.p.): -0.3 g; interaction with DNA (in words) (DNA): bind covalently at the minor groove of DNA double strand forming interstrand cross-links
COc1cc(NS(C)(=O)=O)ccc1Nc1c2ccccc2nc2ccccc12 [m-AMSA, reference compound]	0.004 µM	–	–	–	–	–	–	–	–	–	–	–	IC50 (human leukemic HL-60; Homo sapiens): 0.08 µM; IC50 (MT4; Homo sapiens): 0.034 µM
Cc1cc(O)c2c(c1)C(=O)c1cccc(O)c1C2=O [chrysophanol]	–	–	–	–	–	–	–	–	–	–	–	–	activity of the parent natural product (in words) [2]: inactive
O=C1c2ccccc2C(=O)c2c1cc(OCCN(CCCl)CCCl)c1c2CCC1 [compound IIb, 4-[2-bis(2-chloroethyl)amino]ethoxy-2,3-dihydro-1H-cyclopent[a]anthracene-6,11-dione]	–	9.0	0/3	36%	+0.3 g	0/3	-0.3 g	9.0	0/1	36%	9	significant antitumor activity	IC50 (L1210; [4]): 0.29 µM; IC50 (human leukemic HL-60): 0.18 µM; antitumor activity against human leukemic HL-60 cell growth (in words) (human leukemic HL-60): significant antitumor activity; IC50 (MT4): 0.11 µM; antitumor activity against MT4 cell growth (in words) (MT4): significant antitumor activity; day 7 AWC (L1210 cells; 2.5 mg/kg QD x5, i.p.): +1.0 g; AST (L1210 cells; 5.0 mg/kg QD x5, i.p.): 9.0; % ILS (increase in lifespan) (L1210 cells; 5.0 mg/kg QD x5, i.p.): 36%; day 7 AWC (L1210 cells; 5.0 mg/kg QD x5, i.p.): +0.7 g; day 4 AWC (L1210 cells; 20 mg/kg x1, i.p.): -2.5 g; day 7 AWC (L1210 cells; 20 mg/kg x1, i.p.): +0.5 g
O=C1c2ccccc2C(=O)c2c1cc(OCCN(CCCl)CCCl)c1c2CC2NC12 (stereo not drawn) [compound IIc, 2,3-aziridino-4-[2-bis(2-chloroethyl)amino]-ethoxy-2,3-dihydro-1H-cyclopent [a]anthracene-6,11-dione]	–	9.0	0/3	36%	+0.3 g	0/3	-0.3 g	9.0	0/1	36%	9	much greater antitumor activity than that of IIa and IIb	IC50 (L1210; [4]): 0.064 µM; IC50 (human leukemic HL-60): 0.075 µM; antitumor activity against human leukemic HL-60 cell growth (in words) (human leukemic HL-60): significant antitumor activity; potency relative to m-AMSA against HL-60 cell growth (human leukemic HL-60; compared with m-AMSA, HL-60): as potent as m-AMSA; IC50 (MT4): 0.069 µM; antitumor activity against MT4 cell growth (in words) (MT4): significant antitumor activity; activity relative to m-AMSA against MT4 cell growth (MT4; compared with m-AMSA, MT4): half as active as m-AMSA; AST (L1210 cells; 5.0 mg/kg QD x5, i.p.): 9.0; % ILS (increase in lifespan) (L1210 cells; 5.0 mg/kg QD x5, i.p.): 36%; day 7 AWC (L1210 cells; 5.0 mg/kg QD x5, i.p.): +1.7 g; day 4 AWC (L1210 cells; 20 mg/kg x1, i.p.): -2.5 g; day 7 AWC (L1210 cells; 20 mg/kg x1, i.p.): +1.5 g
O=C1c2ccccc2C(=O)c2c1ccc1c2CC2NC12 (stereo not drawn) [compound IIa, 2,3-aziridino-2,3-dihydro-1H-cyclopent[a]anthracene-6,11-dione]	–	–	–	–	–	–	–	–	–	–	–	less activity	IC50 (L1210; Mus musculus, L1210, read-out: IC50 for Cell Growth Inhibition, L1210): 9.09 µM
COc1cccc2c1C(=O)c1c(O)c3c(c(O)c1C2=O)C[C@@](O)(C(=O)CO)C[C@@H]3O[C@H]1C[C@H](N)[C@H](O)[C@H](C)O1 [Adriamycin, reference compound]	0.02 µM	–	–	–	–	–	–	–	–	–	–	–	IC50 (human leukemic HL-60; Homo sapiens): 0.03 µM
Cc1cc(O)c2c(c1)C(=O)c1cc(O)cc(O)c1C2=O [emodin]	–	–	–	–	–	–	–	–	–	–	–	–	activity of the parent natural product (in words) [2]: inactive
